# Laboratory results taken from ChEMBL document CHEMBL1152106, “Derivatives of 5-amidine indole as inhibitors of thrombin catalytic activity” (Bioorg Med Chem Lett, 1996).
# Target: T1, Prothrombin (Homo sapiens, UniProt P00734)
# Assay: Compound was evaluated for inhibition of human alpha-thrombin catalytic activity.
row,IC50 [µM],Compound
1,2,N=C(N)c1ccc2[nH]c(Cc3cccc(Oc4ccccc4)c3)cc2c1
2,1.4,N=C(N)c1ccc2[nH]c(Cc3ccccc3)cc2c1
3,2.4,N=C(N)c1ccc2[nH]c(Cc3cccc(CCc4ccccc4)c3)cc2c1
4,22,N=C(N)c1ccc2[nH]ccc2c1
5,19,N=C(N)c1ccc2[nH]c(-c3ccccc3)cc2c1
6,59,NCc1ccc2[nH]c(C(Cc3ccccc3F)c3ccccc3F)cc2c1 (configuration not stated)
7,66,Cc1c(-c2ccccc2)[nH]c2ccc(C(=N)N)cc12
8,38,N=C(N)c1ccc2[nH]c(-c3ccccc3O)cc2c1
9,20,N=C(N)c1ccc2[nH]c3c(c2c1)CCCC3
10,15,N=C(N)c1ccc2[nH]c(C(Cc3ccccc3F)c3ccccc3F)cc2c1 (configuration not stated)
11,36,N=C(N)c1ccc2[nH]c(Cc3ccccc3F)cc2c1

# Target: T1, Prothrombin
# Assay: Compound was evaluated for inhibition of human alpha-thrombin catalytic activity
row,Ki [µM],Compound
1,0.26,N=C(N)c1ccc2[nH]c(Cc3ccccc3)cc2c1
